In publication PMC11905624 (BMC Biology, 2025):
Peptide text beside a SMILES is read from it.

T1: B2 receptor (Homo sapiens, UniProt P30411)
T1 construct: endogenous in cells; host or cells: HaCaT
T1 sequence (P30411 1-391): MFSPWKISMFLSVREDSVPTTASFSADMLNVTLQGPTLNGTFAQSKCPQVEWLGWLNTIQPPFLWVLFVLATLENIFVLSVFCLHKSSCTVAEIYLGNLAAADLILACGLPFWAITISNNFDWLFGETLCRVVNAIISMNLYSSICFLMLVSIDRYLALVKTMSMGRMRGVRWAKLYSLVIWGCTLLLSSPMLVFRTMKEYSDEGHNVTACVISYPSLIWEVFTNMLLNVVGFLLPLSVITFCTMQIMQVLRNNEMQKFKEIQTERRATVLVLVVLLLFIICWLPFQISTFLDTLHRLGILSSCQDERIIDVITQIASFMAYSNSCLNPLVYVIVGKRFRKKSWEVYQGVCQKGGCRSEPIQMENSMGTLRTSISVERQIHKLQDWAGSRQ

B1: carbamylated HMWK: carbamylated high molecular weight kininogen (protein, UniProt P01042 19-644, looked up)
Kininogen-1: QESQSEEIDCNDKDLFKAVDAALKKYNSQNQSNNQFVLYRITEATKTVGSDTFYSFKYEIKEGDCPVQSGKTWQDCEYKDAAKAATGECTATVGKRSSTKFSVATQTCQITPAEGPVVTAQYDCLGCVHPISTQSPDLEPILRHGIQYFNNNTQHSSLFMLNEVKRAQRQVVAGLNFRITYSIVQTNCSKENFLFLTPDCKSLWNGDTGECTDNAYIDIQLRIASFSQNCDIYPGKDFVQPPTKICVGCPRDIPTNSPELEETLTHTITKLNAENNATFYFKIDNVKKARVQVVAGKKYFIDFVARETTCSKESNEELTESCETKKLGQSLDCNAEVYVVPWEKKIYPTVNCQPLGMISLMKRPPGFSPFRSSRIGEIKEETTVSPPHTSMAPAQDEERDSGKEQGHTRRHDWGHEKQRKHNLGHGHKHERDQGHGHQRGHGLGHGHEQQHGLGHGHKFKLDDDLEHQGGHVLDHGHKHKHGHGHGKHKNKGKKNGKHNGWKTEHLASSSEDSTTPSAQTQEKTEGPTPIPSLAKPGVTVTFSDFQDSDLIATMMPPISPAPIQSDDDWIPDIQIDPNGLSFNPISDFPDTTSPKCPGRPWKSVSEINPTTQMKESYYFDLTDGLS
modifications: High molecular weight kininogen carbamylated

Columns and labels:
B2 receptor = target: T1, B2 receptor; test: Intracellular calcium flux in HaCaT cells; assay type: cell-based
Method: HaCaT cells were seeded onto 96-well plates and, upon reaching full confluence, were starved for 3 h (medium without FBS). […] After 1.5 h in 37 °C, fluorescence intensity (485/525 nm) was recorded continuously for 5 min using FlexStation 3 (Molecular Devices). […] FBS (3%) served as positive control. Results were calculated as area under the curves of RFU fold change from the signal recorded at baseline and adjusted to % of maximum response (FBS) curve. Non-linear regression analyses were performed to generate dose–response curves and calculate EC50 values.

pKLK = target: T2, pKLK (Homo sapiens, UniProt P03952); test: BK release from HMWK by pKLK, HPLC; assay type: biochemical; conditions: 5 µg HMWK, 500 nM pKLK, 24 h, 50 mM Tris-HCl pH 7.5, 37 °C
T2 construct: purchased Merck
Method: Ten µg of BK or cBK (ProImmune) were incubated with 15 ng of CPM (RnD; 1 h in 50 mM MES buffer pH 6.0 containing 5 mM CaCl2, 0.2% Triton-X100), 20 ng of NEP (RnD; 2 h in 50 mM HEPES buffer pH 7.4 containing 150 mM NaCl, 0,01% Triton-X100) or 40 ng of ACE1 (Merck; 4 h in 20 mM HEPES buffer containing 100 µM ZnCl2, 300 mM KCl) in final volume of 11 µl in 37 °C. Substrate controls were incubated in parallel without enzymes. Five µg of HMWK (Merck) were incubated with 500 nM of pKLK (Merck; 24 h in 50 mM Tris–HCl buffer pH 7.5 containing 100 mM NaCl, 0.01% Triton-X100) in final volume of 35 µl in 37 °C. Reactions were stopped with addition of TFA, TCA, EDTA and inhibitors for ACE1 (1 µM lisinopril), NEP (4 mM thiorphan), pKLK (1 mM AEBSF), and analysed via HPLC.
Absorbance chromatograms (215 nm) were evaluated with the LabSolutions software.

T2 sequence (P03952 20-638): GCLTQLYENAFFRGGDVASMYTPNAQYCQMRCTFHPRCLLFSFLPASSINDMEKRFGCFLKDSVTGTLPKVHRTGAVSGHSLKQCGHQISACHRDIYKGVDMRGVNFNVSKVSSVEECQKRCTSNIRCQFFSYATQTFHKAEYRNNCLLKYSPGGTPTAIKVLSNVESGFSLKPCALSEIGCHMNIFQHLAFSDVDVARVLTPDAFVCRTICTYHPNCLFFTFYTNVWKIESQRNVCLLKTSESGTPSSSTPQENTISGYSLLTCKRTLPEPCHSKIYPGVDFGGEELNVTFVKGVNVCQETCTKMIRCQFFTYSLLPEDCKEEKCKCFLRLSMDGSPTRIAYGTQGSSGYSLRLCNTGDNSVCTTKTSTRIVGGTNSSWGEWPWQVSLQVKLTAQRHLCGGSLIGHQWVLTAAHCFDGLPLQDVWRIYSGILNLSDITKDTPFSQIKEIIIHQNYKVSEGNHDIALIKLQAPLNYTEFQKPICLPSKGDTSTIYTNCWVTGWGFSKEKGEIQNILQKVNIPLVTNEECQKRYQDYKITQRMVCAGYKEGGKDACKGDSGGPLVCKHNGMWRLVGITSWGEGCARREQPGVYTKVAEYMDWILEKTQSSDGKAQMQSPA

| Molecule | B2-stimulatory potential lower than the response elicited by native BK (B2 receptor; 100 nM peptide, calcium sensitive dye) | EC50 (B2 receptor; Calcium Dye 5, AUC of RFU fold change as % of maximum response (FBS), n = 6, mean ± SEM) | pKLK-driven generation of BK (pKLK) |
| --- | --- | --- | --- |
| N=C(N)NCCC[C@H](NC(=O)[C@H](Cc1ccccc1)NC(=O)[C@@H]1CCCN1C(=O)[C@H](CO)NC(=O)[C@H](Cc1ccccc1)NC(=O)CNC(=O)[C@@H]1CCCN1C(=O)[C@@H]1CCCN1C(=O)[C@H](CCCNC(=N)N)NC(N)=O)C(=O)O [cBK] (HELM PEPTIDE1{[N=C(N)NCCC[C@H](NC(N)=O)C(=O)[*:2]].P.P.G.F.S.P.F.R}$$$$V2.0) | over 25% | 26.55 ± 0.0011 nM | – |
| B1 | – | – | abolishes |
